In publication PMC11243327, “Design, Synthesis, Antitumor, and Antiplasmodial Evaluation of New 7-Chloroquinoline–Benzimidazole Hybrids” (Molecules, 2024):
Counter-ions that a name gives are not always drawn. Like-named read-outs stand apart in the source and are kept apart here.

Columns and labels:
[1] = system: P. falciparum 3D7 (CQ-susceptible), erythrocytic stage; assay: Antiplasmodial HRP2 assay, Pf3D7; format: cell-based, Plasmodium falciparum; details: read-out: IC50 Pf3D7
Protocol: (§1) Method used to evaluate the antiplasmodial activity of quinoline–benzimidazole hybrids against two P. falciparum strains, chloroquine-sensitive (Pf3D7) and chloroquine-resistant (PfDd2), was previously described. […] Chloroquine was used as a positive control.
(§2) In brief, 96-well plates were pre-coated with the tested compounds at 1:3 dilution before ring-stage parasites were added to the complete culture medium at a hematocrit of 1.5% and a parasitemia of 0.05%. […] All compounds were analyzed in duplicate in at least two independent experiments. The IC50 was determined by nonlinear regression analysis of the logarithmic concentration-response curves using the drc package v3.0-1 of R v4.1.0 [56].

[2] = system: P. falciparum Dd2 (multiresistant), erythrocytic stage; assay: Antiplasmodial HRP2 assay, PfDd2; format: cell-based, Plasmodium falciparum; details: read-out: IC50 PfDd2
Protocol: as §1, §2

[3] = system: HL-60 (acute promyelocytic leukemia); assay: Antiproliferative MTT assay, HL-60; format: cell-based, human; details: mean ± SD of three experiments
Protocol: (§3) The effect of the new synthesized compounds was tested on five human tumor cell lines, HeLa (human cervical adenocarcinoma; from ATCC), CaCo-2 (human colorectal adenocarcinoma), HL-60 (acute promyelocytic leukemia), HuT78 (T-cell lymphoma), and THP-1 (acute monocytic leukemia), as well as one non-tumor cell line, MRC-5 (human fetal lung fibroblasts). The MRC-5 cells were used between 24 and 26 passages. The cells were cultured in two different types of media: DMEM (Gibco Thermo Fisher Scinetific Inc., Runcorn, UK) and RPMI 1640 (Gibco, Thermo Fisher Scinetific Inc., UK). Both media were supplemented with 2 mM glutamine, fetal bovine serum (10%; heat inactivated), and antibiotics (100 U penicillin and 0.1 mg streptomycin). RPMI 1640 was additionally supplemented with 10 mM HEPES and 1 mM sodium pyruvate. Cells growing in a monolayer were cultured in DMEM, while cells growing in suspension were cultured in RPMI 1640. Cells were grown in humidified atmosphere under the conditions of 37 °C/5% CO2 gas in a CO2 incubator (IGO 150 CELLlife^TM, JOUAN, Thermo Fisher Scientific, Waltham, MA, USA).
(§4) Growth-inhibitory activity was assessed using a slightly modified procedure based on the National Cancer Institute’s protocol. Briefly, cells were seeded in 96-well microtiter plates and incubated for 24 h. They were then treated with 10^−7 to 10^−4 M concentrations of the tested compounds for an additional 72 h. After the treatment period, the effects of the tested compounds on the growth rate of the cells were examined using the MTT assay. Absorbance was measured at 595 nm using a microplate reader. The IC50 value, which represents a 50% inhibition of cell growth, and QC calculation were performed using the GraphPadPrism software (La Jolla, USA), v. 5.03. and Excel software, Office 365. The selectivity index was calculated according to the following formula: SI=IC50 value of normal cell line/IC50 value of cancer cell line
(§5) The effect of each concentration was analyzed by plotting the logarithm of the concentration of the evaluated compound against the corresponding percentage inhibition value using least squares.

[4] = system: HeLa (human cervical adenocarcinoma); assay: Antiproliferative MTT assay, HeLa; format: cell-based; details: 72 h, mean ± SD of three experiments
Protocol: as §3, §4, §5

[5] = system: MRC-5 (human fetal lung fibroblasts); assay: Antiproliferative MTT assay, MRC-5; format: cell-based; details: 72 h, mean ± SD of three experiments
Protocol: as §3, §4, §5

HuT78 (T-cell lymphoma) = assay: Antiproliferative MTT assay, Hut78; format: cell-based, human; details: mean ± SD of three experiments
Protocol: as §3, §4, §5

[6] = system: CaCo-2 (human colorectal adenocarcinoma); assay: Antiproliferative MTT assay, CaCo-2; format: cell-based; details: mean ± SD of three experiments
Protocol: as §3, §4, §5

[7] = system: THP-1 (acute monocytic leukemia); assay: Antiproliferative MTT assay, THP-1; format: cell-based, human; details: mean ± SD of three experiments
Protocol: as §3, §4, §5

[8] = Homo sapiens, MRC5, non-tumor cell line
[9] = Plasmodium falciparum, 3D7, 72 h, chloroquine-sensitive strain, three days incubation, HRP2-ELISA, mean ± SD, n ≥ 2
[10] = Plasmodium falciparum, DD2, 72 h, chloroquine-resistant strain, three days incubation, HRP2-ELISA, mean ± SD, n ≥ 2

| Compound | melting point | IC50 ([3]; Homo sapiens, HL-60, 72 h) [nM] | IC50 ([4]; Homo sapiens, HeLa) [nM] | IC50 [5, 8] [nM] | IC50 (HuT78 (T-cell lymphoma); Homo sapiens, HuT78, 72 h) [nM] | IC50 ([6]; Homo sapiens, Caco-2, 72 h) [nM] | IC50 [1, 9] [nM] | IC50 [2, 10] [nM] | IC50 ([7]; Homo sapiens, THP-1, 72 h) [nM] | also measured |
| --- | --- | --- | --- | --- | --- | --- | --- | --- | --- | --- |
| N=C(NC1CCCC1)c1ccc2nc(-c3ccc(OCCNc4ccnc5cc(Cl)ccc45)c(Br)c3)[nH]c2c1 (as salt: hydrochloride) [Compound 11d, 2-{3-bromo-4-[2-(7-chloroquinolin-4-ylamino)ethoxy]phenyl}-N-cyclopentyl-1H-benzo[d]imidazole-5(6)-carboximidamide trihydrochloride] | 234 °C (dec.) | – | – | – | – | – | – | – | – | – |
| COc1cc(-c2nc3ccc(C(=N)NC4CCCC4)cc3[nH]2)ccc1OCCNc1ccnc2cc(Cl)ccc12 (as salt: hydrochloride) [Compound 12d, 2-{3-methoxy-4-[2-(7-chloroquinolin-4-ylamino)ethoxy]phenyl}-N-cyclopentyl-1H-benzo[d]imidazole-5(6)-carboximidamide trihydrochloride] | 226 °C (dec.) | – | – | – | – | – | – | – | – | – |
| N=C(NC1CCCC1)c1ccc2nc(-c3ccc(OCCCNc4ccnc5cc(Cl)ccc45)cc3)[nH]c2c1 (as salt: hydrochloride) [Compound 13d] | > 275 °C | – | – | – | – | – | – | – | – | – |
| N=C(NC1CCCC1)c1ccc2nc(-c3ccc(OCCCNc4ccnc5cc(Cl)ccc45)c(Br)c3)[nH]c2c1 (as salt: hydrochloride) [Compound 14d] | 265 °C (dec.) | – | – | – | – | – | – | – | – | – |
| COc1cc(-c2nc3ccc(C(=N)NC4CCCC4)cc3[nH]2)ccc1OCCCNc1ccnc2cc(Cl)ccc12 (as salt: hydrochloride) [Compound 15d] | 260 °C (dec.) | – | – | – | – | – | – | – | – | – |
| CCN(CC)CCCC(C)Nc1ccnc2cc(Cl)ccc12 (centres unmarked) [CQ, Chloroquine, reference compound] | – | – | – | – | – | – | – | – | – | IC50 ([1]; Plasmodium falciparum, 3D7, 72 h): 11.1 ± 0.5 nM; IC50 ([2]; Plasmodium falciparum, DD2, 72 h): 360 ± 27.1 nM |
| Clc1ccc2c(NCCOc3ccc(-c4nc5ccccc5[nH]4)cc3)ccnc2c1 [Compound 10a] | 171 to 173 °C | 1300 ± 900 | 3400 ± 500 | 3100 ± 300 | 2800 ± 500 | 6100 ± 4900 | 2.7 ± 0.2 | 3.3 ± 0.1 | 2400 ± 200 | – |
| Clc1ccc2c(NCCOc3ccc(-c4nc5ccc(Cl)cc5[nH]4)cc3)ccnc2c1 [Compound 10b, 7-chloro-N-{2-[4-(5(6)-chloro-1H-benzo[d]imidazole-2-yl)phenoxy]ethyl}quinolin-4-amine] | 222 to 224 °C | 2000 ± 400 | 2700 ± 200 | 4000 ± 1100 | 1600 ± 1200 | 1900 ± 200 | 3.5 ± 1.5 | 4.9 ± 0.8 | 3400 ± 800 | – |
| COc1ccc2nc(-c3ccc(OCCNc4ccnc5cc(Cl)ccc45)cc3)[nH]c2c1 [Compound 10c, 7-chloro-N-{2-[4-(5(6)-methoxy-1H-benzo[d]imidazole-2-yl)phenoxy]ethyl}quinolin-4-amine] | 248 °C (dec.) | 1800 ± 500 | 2600 ± 400 | 4900 ± 1700 | 2300 ± 800 | 1700 ± 100 | 6.8 ± 1.8 | 10.1 ± 5 | 3800 ± 400 | – |
| Clc1ccc2c(NCCOc3ccc(-c4nc5ccccc5[nH]4)cc3Br)ccnc2c1 [Compound 11a, N-{2-[4-(1H-benzo[d]imidazole-2-yl)-2-bromophenoxy]ethyl}-7-chloroquinolin-4-amine] | 226 to 228 °C | 300 ± 300 | 2600 ± 200 | 2200 ± 800 | 2400 ± 600 | 2100 ± 600 | 36.9 ± 1.5 | 8.7 ± 3.4 | 4900 ± 7300 | – |
| Clc1ccc2c(NCCOc3ccc(-c4nc5ccc(Cl)cc5[nH]4)cc3Br)ccnc2c1 [Compound 11b, N-{[2-bromo-4-(5(6)-chloro-1H-benzo[d]imidazole-2-yl)phenoxy]ethyl}-7-chloroquinolin-4-amine] | 238 to 240 °C | 1300 ± 900 | 5400 ± 4600 | 3000 ± 900 | 5800 ± 1900 | 13300 ± 2500 | 87.3 ± 3.3 | 88.3 ± 3.1 | 4400 ± 5100 | – |
| COc1ccc2nc(-c3ccc(OCCNc4ccnc5cc(Cl)ccc45)c(Br)c3)[nH]c2c1 [Compound 11c, N-{[2-bromo-4-(5(6)-methoxy-1H-benzo[d]imidazole-2-yl)phenoxy]ethyl}-7-chloroquinolin-4-amine] | 208 to 210 °C | 2200 ± 400 | 2500 ± 400 | 5300 ± 2400 | 3000 ± 1100 | 1500 ± 300 | 19.7 ± 4.2 | 28 ± 0.6 | 3500 ± 7300 | – |
| N=C(NC1CCCC1)c1ccc2nc(-c3ccc(OCCNc4ccnc5cc(Cl)ccc45)c(Br)c3)[nH]c2c1 [Compound 11d, 2-{3-bromo-4-[2-(7-chloroquinolin-4-ylamino)ethoxy]phenyl}-N-cyclopentyl-1H-benzo[d]imidazole-5(6)-carboximidamide trihydrochloride] | – | 44300 ± 1200 | > 100000 | > 100000 | 17300 ± 9200 | > 100000 | 321 ± 32.8 | 984 ± 521 | 33900 ± 3600 | – |
| COc1cc(-c2nc3ccccc3[nH]2)ccc1OCCNc1ccnc2cc(Cl)ccc12 [Compound 12a, N-{[4-(1H-benzo[d]imidazole-2-yl)-2-methoxyphenoxy]ethyl}-7-chloroquinolin-4-amine] | 210 to 212 °C | 2000 ± 300 | 2200 ± 100 | 3800 ± 400 | 4200 ± 2100 | 2000 ± 300 | 14.5 ± 4 | 91.2 ± 9.5 | 3000 ± 600 | – |
| COc1cc(-c2nc3ccc(C(=N)NC4CCCC4)cc3[nH]2)ccc1OCCNc1ccnc2cc(Cl)ccc12 [Compound 12d, 2-{3-methoxy-4-[2-(7-chloroquinolin-4-ylamino)ethoxy]phenyl}-N-cyclopentyl-1H-benzo[d]imidazole-5(6)-carboximidamide trihydrochloride] | – | 52500 ± 5100 | > 100000 | > 100000 | 16100 ± 4700 | > 100000 | 190 ± 11.5 | 120 ± 7.5 | 100000 | – |
| N=C(NC1CCCC1)c1ccc2nc(-c3ccc(OCCCNc4ccnc5cc(Cl)ccc45)cc3)[nH]c2c1 [Compound 13d] | – | 18200 ± 6700 | > 100000 | 83000 ± 5400 | 15200 ± 3000 | > 100000 | 57.4 ± 1.9 | 198.3 ± 0.1 | 14400 ± 3100 | – |
| N=C(NC1CCCC1)c1ccc2nc(-c3ccc(OCCCNc4ccnc5cc(Cl)ccc45)c(Br)c3)[nH]c2c1 [Compound 14d] | – | 24400 ± 4400 | > 100000 | > 100000 | 19700 ± 4000 | > 100000 | 159 ± 22.6 | 451 ± 40.3 | 100000 | – |
| N-{2-[4-(1H-benzo[d]imidazole-2-yl)-2-bromophenoxy]propyl}-7-chloroquinolin-4-amine [Compound 14a] | – | – | – | – | – | – | – | – | – | IC50 ([3]; 72 h): 700 ± 500 nM; IC50 [4]: 1200 ± 700 nM; IC50 ([5]; non-tumor cell line): 600 ± 600 nM; IC50 (HuT78 (T-cell lymphoma); 72 h): 1700 ± 400 nM; IC50 ([6]; 72 h): 5000 ± 7300 nM; IC50 ([1]; chloroquine-sensitive strain, three days incubation, HRP2-ELISA, mean ± SD, n ≥ 2): 9.3 ± 0.9 nM; IC50 ([2]; chloroquine-resistant strain, three days incubation, HRP2-ELISA, mean ± SD, n ≥ 2): 13 ± 1.9 nM; IC50 ([7]; 72 h): 5100 ± 1700 nM |
